Data from patent US20250051281A1, “CRYSTALLINE FORM OF AROMATIC RING DERIVATIVE, AND PREPARATION METHOD THEREFOR AND APPLICATION THEREOF” (SHANGHAI JEMINCARE PHARMACEUTICAL CO., LTD, priority 2021, published 2025).

Columns and labels:
Assay type in all cases: physicochemical
[1] = Stability test of crystal forms under high temperature, high humidity and light exposure (HPLC purity); settings: for Purity after 30 days at a temperature of 25° C. with a relative humidity of 90% ± 5%: 90% ± 5% RH; for Purity after 30 days at a temperature of 25° C. with a relative humidity of 90% ± 5% / Purity after 30 days at high temperature (60° C.) / Purity after 30 days at a light intensity of 4500 Lx ± 500 Lx / Initial purity: HPLC purity; for Initial purity: before stress conditions
Description: (§1) The high-performance liquid chromatography (HPLC) analysis method used in the present disclosure is as follows: an Agilent 1260 was used to test the purity and stability of the sample under the conditions shown in Table 18.
(§2) Consequently, the inventors selected four crystal forms with good reproducibility and ease of purification: crystal forms A, B, G, and Q. These crystal forms were subjected to stability tests under identical conditions of high temperature, high humidity, and light exposure.

[2] = Purity of crystal forms at storage conditions of 25° C. and 40° C. (Table 27)
Method: as §1
The purity of crystal forms A, B, G, and Q, under identical mass and packaging conditions, was investigated at storage conditions of 25° C. and 40° C., as shown in Table 27.

[3] = Changes in shape of crystal forms under high temperature, high humidity and light exposure (Table 26)
Description: as §2

[4] = Stability verification of crystal form G in different solvents (XRPD form after slurry or vapour exposure); settings: room temperature, dried under vacuum at 50° C. for 2 hours
Method: The X-ray powder diffraction analysis method used in the present disclosure is as follows: X-ray powder diffraction testing was conducted at room temperature using a Bruker D2 PHASER diffractometer (300 W low-power X-ray emitter). During the test, a silicon wafer was used to sustain the sample powder, and an X-ray Cu (Kα) tube was used, with a Kα2/Kα1 intensity ratio of 0.50 (1.54439 Å/1.5406 Å). The instrument was set to 30 kV and 10 mA, with a step size of 0.02° (2θ), a scanning time of 0.15 s per step, for a total of 1837 steps.
Method 1: The crystal form G (50 mg) was added to 0.5 mL of the corresponding solvent (the solvent may be EtOH, H2O, or a mixture of EtOH/H2O in the ratios of 970/30, 927/73, 855/145, 704/296, v/v).
Method 2: The crystal form G (15 mg) was placed in a 4 mL glass vial, which was then placed inside a 20 mL glass vial containing 3 mL of a volatile solvent (which may be MeOH or EtOH). The 20 mL glass vial was tightly capped and left to stand at room temperature for approximately one week.

[5] = High Temperature (60° C.), 5 Days
[6] = High Temperature (60° C.), 10 Days
[7] = High Temperature (60° C.), 30 Days
[8] = Light intensity of 4500 Lx ± 500 Lx, 5 Days
[9] = Light intensity of 4500 Lx ± 500 Lx, 10 Days
[10] = Light intensity of 4500 Lx ± 500 Lx, 30 Days
[11] = Temperature of 25° C., relative humidity of 90% ± 5%, 5 Days
[12] = Temperature of 25° C., relative humidity of 90% ± 5%, 10 Days
[13] = Temperature of 25° C., relative humidity of 90% ± 5%, 30 Days

| Purity after 30 days at a temperature of 25° C. with a relative humidity of 90% ± 5% [1] [%] | Purity after 30 days at high temperature (60° C.) [1] [%] | Purity after 30 days at a light intensity of 4500 Lx ± 500 Lx [1] [%] | Initial purity [1] [%] | Purity on storage ([2]; 25° C., 0 Days) [%] | Purity on storage ([2]; 25° C., 15 Days) [%] | Purity on storage ([2]; 25° C., 30 Days) [%] | Purity on storage ([2]; 25° C., 45 Days) [%] | Purity on storage ([2]; 25° C., 60 Days) [%] | Purity on storage ([2]; 25° C., 90 Days) [%] | Purity on storage ([2]; 40° C., 0 Days) [%] | Purity on storage ([2]; 40° C., 15 Days) [%] | Purity on storage ([2]; 40° C., 30 Days) [%] | Purity on storage ([2]; 40° C., 45 Days) [%] | Purity on storage ([2]; 40° C., 60 Days) [%] | Purity on storage ([2]; 40° C., 90 Days) [%] | Shape (appearance) [3, 5] | Shape (appearance) [3, 6] | Shape (appearance) [3, 7] | Shape (appearance) ([3]; Initial State) | SMILES | further results |
| --- | --- | --- | --- | --- | --- | --- | --- | --- | --- | --- | --- | --- | --- | --- | --- | --- | --- | --- | --- | --- | --- |
| 98.49 | 94.57 | 94.45 | 99.28 | 99.03 | 98.91 | 98.93 | 98.87 | 98.85 | 98.73 | 99.03 | 98.73 | 98.42 | 98.30 | 98.15 | 97.69 | Off-white | Pale yellow | Yellow solid | Off-white | Cc1c(CCC(=O)O)[nH]c2ccc(OCc3ccc(C4CCCC4)c(C(F)(F)F)c3)cc12 [Crystal form A] | Shape (appearance) [3, 8]: Off-white; Shape (appearance) [3, 9]: Pale yellow; Shape (appearance) [3, 10]: Yellow solid; Shape (appearance) [3, 11]: Off-white; Shape (appearance) [3, 12]: Off-white; Shape (appearance) [3, 13]: Off-white |
| 98.50 | 97.21 | 94.55 | 99.44 | 99.14 | 99.05 | 99.00 | 98.93 | 98.94 | 98.86 | 99.14 | 98.88 | 98.73 | 98.68 | 98.66 | 98.40 | Off-white | Off-white | Off-white | Off-white | Cc1c(CCC(=O)O)[nH]c2ccc(OCc3ccc(C4CCCC4)c(C(F)(F)F)c3)cc12 [Crystal form B] | Shape (appearance) [3, 8]: Off-white; Shape (appearance) [3, 9]: Pale yellow; Shape (appearance) [3, 10]: Yellow solid; Shape (appearance) [3, 11]: Off-white; Shape (appearance) [3, 12]: Off-white; Shape (appearance) [3, 13]: Off-white |

| SMILES | Purity after 30 days at a temperature of 25° C. with a relative humidity of 90% ± 5% [1] [%] | Purity after 30 days at high temperature (60° C.) [1] [%] | Purity after 30 days at a light intensity of 4500 Lx ± 500 Lx [1] [%] | Initial purity [1] [%] | Purity on storage ([2]; 25° C., 0 Days) [%] | Purity on storage ([2]; 25° C., 15 Days) [%] | Purity on storage ([2]; 25° C., 30 Days) [%] | Purity on storage ([2]; 25° C., 45 Days) [%] | Purity on storage ([2]; 25° C., 60 Days) [%] | Purity on storage ([2]; 25° C., 90 Days) [%] | Purity on storage ([2]; 40° C., 0 Days) [%] | Purity on storage ([2]; 40° C., 15 Days) [%] | Purity on storage ([2]; 40° C., 30 Days) [%] | Purity on storage ([2]; 40° C., 45 Days) [%] | Purity on storage ([2]; 40° C., 60 Days) [%] | Purity on storage ([2]; 40° C., 90 Days) [%] | Shape (appearance) [3, 5] | Shape (appearance) [3, 6] | Shape (appearance) [3, 7] | Shape (appearance) ([3]; Initial State) | further results |
| --- | --- | --- | --- | --- | --- | --- | --- | --- | --- | --- | --- | --- | --- | --- | --- | --- | --- | --- | --- | --- | --- |
| Cc1c(CCC(=O)[O][Ca][O]C(=O)CCc2[nH]c3ccc(OCc4ccc(C5CCCC5)c(C(F)(F)F)c4)cc3c2C)[nH]c2ccc(OCc3ccc(C4CCCC4)c(C(F)(F)F)c3)cc12 [Crystal form G] | 98.78 | 99.12 | 96.02 | 99.60 | 99.48 | 99.42 | 99.43 | 99.43 | 99.41 | 99.36 | 99.48 | 99.28 | 99.27 | 99.24 | 99.16 | 99.01 | Off-white solid | Off-white solid | Off-white solid | Off-white solid | Stability under high temperature, high humidity, and light exposure conditions compared to the other crystal forms ([1]; summary of Tables 25 and 26, versus crystal forms A, B, Q): higher stability; Stability when stored at 25° C. and 40° C. for 90 days ([2]; summary of Table 27, 90 days): higher stability; Crystal form obtained after stirring in solvent ([4]; EtOH, H2O or EtOH/H2O mixtures, 4 days): obtain the crystal form G; Crystal form obtained after exposure to volatile solvent vapour ([4]; MeOH or EtOH vapour, approximately one week): obtain the crystal form G; Shape (appearance) [3, 8]: Off-white solid; Shape (appearance) [3, 9]: Pale yellow; Shape (appearance) [3, 10]: Yellow solid; Shape (appearance) [3, 11]: Off-white solid; Shape (appearance) [3, 12]: Off-white solid; Shape (appearance) [3, 13]: Off-white solid |
